{"source": "patent US20050238581A1", "about": "“Dynamic hepatic recycling glucose tolerance test” (priority 2002, published 2005)", "key": {"[1]": {"assay": "intraperitoneal hepatic recycling glucose tolerance test (HRGTT) with [1, 2-^13C2]-glucose load", "assay_type": "in vivo, C57BL6 mice", "conditions": "for decrease in total amount of M2 glucose: compared to amount appearing in plasma between 0-60 minutes", "method": "Stable isotopes of the M2 isotopomer glucose was administered at 1 mg glucose/gm body weight by intraperitoneal injection. Animals were euthanized by an overdose of isoflurane anesthesia, and tissue from liver and skeletal muscle were rapidly dissected free, snap-frozen in liquid nitrogen, and stored at −80° C. until processed for isolation of RNA or glycogen. Cytosolic protein was extracted from the liver tissue after homogenization with 10 strikes in lysis buffer containing 0.25 M sucrose, I OmM Tris-HCL(pH7.4), 3 mM MgCL2, 0.1 mM PMSF, 20 mM NaF, 1 mM Na3VO4, 1 MM Na4P207, 1 μg/ml of leupeptin/aprotinin/pepstatin. The resulting cell lysate was filtered with 4 layers of cheesecloth. Nuclei were pelleted by centrifugation at 1000 g for 10 min. Mitochondria were precipitated by centrifugation at 15,000 g for 20 min from the supernatant. The cytosolic fraction was isolated as the supernatant obtained from last ultra-centrifugation at 100,000 g at 4° C. for 1 hr. Protein concentration from cytosol were measured by using an absorbance at 595 run (BCA kit from Pierce). 60 1 μg of protein extracts from cytosol were separated by 10% SDS-PAGE. The membrane blots were incubated with anti-GK at 1:2500 (v/v), anti-G6PDH at 1:2000 (v/v), anti-PEPCK at 1:500 (v/v), and anti-p-actin at 1:2000 (v/v), for either 1 hr in western washing buffer at RT or overnight at 4 C after blocking. The blots were hybridized with secondary antibodies coupled to horseradish peroxidase for 40 to 60 min at RT. Immunodetection was accomplished using enhanced chemiluminescence. Density of each band was determined by scanning the exposed film. The time course of glucose and lactate isotopomers in plasma, and glucose isotopomers in liver glycogen was determined using gas chromatography/mass spectrometry. The M1 glucose isotopomer, in which ^13C glucose can occupy the carbon 1 position, was produced via the action of the oxidative limb of the pentose phosphate pathway (PPP) on the administered M2 glucose isotopomer, and its re-entry into the gluconeogenic pathway via the non-oxidative limb of the PPP. The absorption of administered glucose was monitored by the time course of M2 isotopomer, and hepatic glucose recycling by the time course of M1 isotopomer of glucose."}, "[2]": {"assay": "[1, 2-^13C2]-glucose HR-GTT in C57BL/6 and PPARα KO mice", "assay_type": "in vivo, C57BL/6 mice and PPARα KO mice", "conditions": "for glucose recycling rate constant (kHR), slope of M1/M2 ratio against time: regression analysis", "method": "Wild-type (C57BL/6) mice and PPARα KO mice were obtained. In this example, glucose was labeled with either stable isotopes of [1, 2-^13C2]-glucose, or [2-^2H]- and [6, 6-^2H2]-glucose and all isotopes were 99% enriched. The [1, 2-^13C2]-glucose, or a 1:1 mixture of [2-^2H]- and [6, 6-^2H2]-glucose, was then administered at 1 mg glucose/gm body weight by intraperitoneal injection. Blood was sampled at 0, 0.5, 1, 2, and 3 hours for [1, 2-^13C2]-glucose isotopomer analysis, and 0.5, 1 and 2 hours for deuterated glucose isotopomer analysis. Plasma glucose and lactate concentrations were determined by the use of a COBAS MIRA analyzer. All isotopomeric determinations were performed on a Hewlett Packard Mass Selective Detector (model 5973A) connected to an HP Gas Chromatograph (model 6890) using chemical ionization (CI) with 20% methane. The re-cycling of hepatic glucose, leading to the appearance of M1 glucose in blood, occurs when the glucose traverses the glucose<->G-6-P, pentose phosphate pathway, and possibly the TCA cycle. […] The slope of the increase in this ratio gives the in vivo glucose dependent futile re-cycling rate constant of glucose through G-6-P."}}, "data": [{"smiles": "OC[C@H]1OC(O)[C@H](O)[C@@H](O)[C@@H]1O", "note": "(stereo partly shown) [[1,2-^13C2]-glucose]", "values": [{"measurement": "decrease in total amount of M2 glucose", "setting": "[1]; 60-120 minutes", "value": 30, "unit": "%"}, {"measurement": "decrease in total amount of M2 glucose", "setting": "[1]; 120-180 minutes", "value": 65, "unit": "%"}, {"measurement": "plasma M2 enrichment after steady decline", "setting": "[1]; after the first 60 minutes, ip 1 mg/gm", "value": "20.1±1.3", "unit": "%"}, {"measurement": "enrichment of [1, 2-^13C2]-glucose (M2) in the plasma glucose pool", "setting": "[1]; enrichment rapidly achieved after ip injection of 1 mg/gm body weight", "value": "55±1.0", "unit": "%"}, {"measurement": "contribution of direct pathway from glucose uptake to glycogen glucose deposited", "setting": "[1]; glucose load 1 mg glucose/g body weight", "value": "less than 5%"}, {"measurement": "M2 isotopomer enrichment in liver glycogen glucose, start of decrease", "setting": "[1]; liver glycogen, earlier time (2 hours)", "value": 1.9, "unit": "%"}, {"measurement": "M2 isotopomer enrichment in liver glycogen glucose, end of decrease", "setting": "[1]; liver glycogen, later time (3 hours)", "value": 0.8, "unit": "%"}, {"measurement": "glucose recycling rate constant (kHR), slope of M1/M2 ratio against time", "setting": "[2]; C57BL/6 mice", "value": "0.1086 ± 0.0049", "unit": "per hour"}, {"measurement": "glucose recycling rate constant (kHR), slope of M1/M2 ratio against time", "setting": "[2]; PPARα KO mice, p<0.025 vs C57BL/6", "value": "0.0790 ± 0.0064", "unit": "per hour"}, {"measurement": "fall in plasma M2 levels, faster in PPARα KO than in C57BL/6 (overall glucose clearance)", "setting": "[2]; between 0.5 hours and 3.0 hours, p<0.001", "value": 32, "unit": "%"}]}]}
